Laboratory results as given in patent US9035056B2, “Pyrido[4,3-b]indole and pyrido[3,4-b]indole derivatives and methods of use” (Medivation Technologies, Inc., priority 2011, dated 2015).

Tests used:
[1] = target: T1, human recombinant adrenergic α2B receptor (Homo sapiens, UniProt P18089); test: Adrenergic α2B radioligand binding ([3H]Rauwolscine); details: for Percentage inhibition of ligand binding, Adrenergic α2B: 0.03 µM; for inhibition at 0.1 µM: 0.1 μM compound
T1 construct: expressed in transfected cells; host or cells: CHO-K1
T1 sequence (P18089 1-450): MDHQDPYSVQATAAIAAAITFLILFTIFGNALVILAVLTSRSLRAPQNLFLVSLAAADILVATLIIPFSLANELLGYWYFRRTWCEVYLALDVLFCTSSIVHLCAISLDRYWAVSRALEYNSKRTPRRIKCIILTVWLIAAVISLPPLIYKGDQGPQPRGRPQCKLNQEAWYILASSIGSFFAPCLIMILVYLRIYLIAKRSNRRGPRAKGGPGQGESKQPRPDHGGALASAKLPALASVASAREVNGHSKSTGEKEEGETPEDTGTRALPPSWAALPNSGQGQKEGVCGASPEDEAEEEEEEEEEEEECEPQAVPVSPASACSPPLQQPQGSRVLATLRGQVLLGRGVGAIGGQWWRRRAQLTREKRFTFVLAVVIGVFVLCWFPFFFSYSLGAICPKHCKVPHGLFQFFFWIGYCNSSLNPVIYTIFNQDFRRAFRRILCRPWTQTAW
Procedure: To evaluate in radioligand binding assays the activity of compounds of the invention, human recombinant adrenergic α2B receptor expressed in Chinese hamster ovary (CHO) K1 cells (Uhlen, S. et al, Eur. J. Pharmacol. 343(1):93, 1998) in a modified Tris-HCl buffer (50 mM Tris-HCl, pH 7.4, 12.5 mM MgCl2, 1 mM EDTA, 0.2% BSA) was used. Compounds of the invention were incubated with 2.5 nM [^3H]Rauwolscine for 60 min at 25° C. Non-specific binding was estimated in the presence of 10 μM Prazosin. Receptor proteins were filtered and washed, the filters were then counted to determine [^3H]Rauwolscine specifically bound. Compounds were screened at 1 μM or lower, using 1% DMSO as vehicle. Biochemical assay results are presented as the percent inhibition of specific binding in Table 3.

[2] = target: T2, human recombinant serotonin (5-Hydroxytryptamine) 5-HT2C receptor (Homo sapiens, UniProt P28335); test: Serotonin 5-HT2C radioligand binding ([3H]Mesulergine); details: 0.1 μM compound; for Percentage inhibition of ligand binding, Serotonin 5-HT2C: 0.1 µM; for inhibition at 0.1 µM: read-out: Percentage inhibition of ligand binding, Serotonin 5-HT2C
T2 construct: expressed in transfected cells; host or cells: CHO-K1
T2 sequence (P28335 33-458): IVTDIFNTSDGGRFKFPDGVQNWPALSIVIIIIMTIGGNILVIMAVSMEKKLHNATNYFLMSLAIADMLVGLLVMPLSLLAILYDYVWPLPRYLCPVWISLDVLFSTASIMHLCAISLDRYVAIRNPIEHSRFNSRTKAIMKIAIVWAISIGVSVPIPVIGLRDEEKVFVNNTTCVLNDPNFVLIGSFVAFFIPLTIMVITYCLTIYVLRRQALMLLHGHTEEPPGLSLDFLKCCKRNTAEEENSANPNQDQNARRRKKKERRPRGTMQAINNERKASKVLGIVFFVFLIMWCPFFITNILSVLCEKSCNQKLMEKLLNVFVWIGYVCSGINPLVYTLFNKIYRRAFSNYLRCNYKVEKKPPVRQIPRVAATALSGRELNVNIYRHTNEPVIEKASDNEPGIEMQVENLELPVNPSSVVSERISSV
Procedure: To evaluate in radioligand binding assays the activity of compounds of the invention, human recombinant serotonin (5-Hydroxytryptamine) 5-HT2C receptor expressed in Chinese hamster ovary (CHO) K1 cells (Wolf, W. et al, J. Neurochem. 69:1449, 1997) in a modified Tris-HCl buffer (50 mM Tris-HCl, pH 7.4, 0.1% Ascorbic Acid, 10 μM Pargyline) was used. Compounds of the invention were incubated with 1 nM [^3H]Mesulergine for 60 min at 25° C. Non-specific binding was estimated in the presence of 1 μM Mianserin. Receptor proteins were filtered and washed, the filters were then counted to determine [^3H]Mesulergine specifically bound. Compounds were screened at 1 μM or lower, using 1% DMSO as vehicle. Biochemical assay results are presented as the percent inhibition of specific binding in Table 5.

[3] = target: T3, human recombinant serotonin (5-Hydroxytryptamine) 5-HT2A receptor (Homo sapiens, UniProt P28223); test: Serotonin 5-HT2A radioligand binding ([3H]Ketanserin); details: 0.1 μM compound; read-out: Percentage inhibition of ligand binding, Serotonin 5-HT2A
T3 construct: expressed in transfected cells; host or cells: CHO-K1
Procedure: To evaluate in radioligand binding assays the activity of compounds of the invention, human recombinant serotonin (5-Hydroxytryptamine) 5-HT2A receptor expressed in Chinese hamster ovary (CHO) K1 cells (Bonhaus, D. et al, Br. J. Pharmacol. 115:622, 1995; Saucier, C. et al, J. Neurochem. 68:1998, 1997) in a 50 mM Tris-HCl buffer, pH 7.4, was used. Compounds of the invention were incubated with 0.5 nM [^3H]Ketanserin for 60 min at 25° C. Non-specific binding was estimated in the presence of 1 μM Mianserin. Receptor proteins were filtered and washed, the filters were then counted to determine [^3H]Ketanserin specifically bound. Compounds were screened at 1 μM or lower, using 1% DMSO as vehicle. Biochemical assay results are presented as the percent inhibition of specific binding in Table 5.

[4] = target: T4, human recombinant serotonin (5-Hydroxytryptamine) 5-HT6 receptor (Homo sapiens, UniProt P50406); test: Serotonin 5-HT6 radioligand binding ([3H]LSD); details: 0.1 μM compound; read-out: Percentage inhibition of ligand binding, Serotonin 5-HT6
T4 construct: expressed in transfected cells; host or cells: HeLa
Procedure: To evaluate in radioligand binding assays the activity of compounds of the invention, human recombinant serotonin (5-Hydroxytryptamine) 5-HT6 receptor expressed in human HeLa cells (Monsma, F. Jr. et al, Mol. Pharmacol. 43:320, 1993) in a modified Tris-HCl buffer (50 mM Tris-HCl, pH 7.4, 150 mM NaCl, 2 mM Ascorbic Acid, 0.001% BSA) was used. Compounds of the invention were incubated with 1.5 nM [3H]Lysergic acid diethylamide (LSD) for 120 min at 37° C. Non-specific binding was estimated in the presence of 5 μM Serotonin (5-HT). Receptor proteins were filtered and washed, the filters were then counted to determine [3H]LSD specifically bound. Compounds were screened at 1 μM or lower, using 1% DMSO as vehicle. Biochemical assay results are presented as the percent inhibition of specific binding in Table 5.

[5] = read-out: Percentage inhibition of ligand binding, Adrenergic α2B

T4 sequence (P50406 whole entry): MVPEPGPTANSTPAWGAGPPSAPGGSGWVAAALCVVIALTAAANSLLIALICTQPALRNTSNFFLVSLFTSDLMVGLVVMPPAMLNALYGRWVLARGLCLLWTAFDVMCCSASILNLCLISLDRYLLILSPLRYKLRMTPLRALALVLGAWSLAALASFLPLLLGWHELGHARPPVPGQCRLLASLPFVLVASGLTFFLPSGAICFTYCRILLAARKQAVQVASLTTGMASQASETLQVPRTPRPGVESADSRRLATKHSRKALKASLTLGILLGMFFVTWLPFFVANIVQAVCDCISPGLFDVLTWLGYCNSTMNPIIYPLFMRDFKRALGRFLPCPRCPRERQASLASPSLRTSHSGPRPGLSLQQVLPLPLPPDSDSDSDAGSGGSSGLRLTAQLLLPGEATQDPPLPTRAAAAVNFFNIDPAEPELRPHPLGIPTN
T3 sequence (P28223 whole entry): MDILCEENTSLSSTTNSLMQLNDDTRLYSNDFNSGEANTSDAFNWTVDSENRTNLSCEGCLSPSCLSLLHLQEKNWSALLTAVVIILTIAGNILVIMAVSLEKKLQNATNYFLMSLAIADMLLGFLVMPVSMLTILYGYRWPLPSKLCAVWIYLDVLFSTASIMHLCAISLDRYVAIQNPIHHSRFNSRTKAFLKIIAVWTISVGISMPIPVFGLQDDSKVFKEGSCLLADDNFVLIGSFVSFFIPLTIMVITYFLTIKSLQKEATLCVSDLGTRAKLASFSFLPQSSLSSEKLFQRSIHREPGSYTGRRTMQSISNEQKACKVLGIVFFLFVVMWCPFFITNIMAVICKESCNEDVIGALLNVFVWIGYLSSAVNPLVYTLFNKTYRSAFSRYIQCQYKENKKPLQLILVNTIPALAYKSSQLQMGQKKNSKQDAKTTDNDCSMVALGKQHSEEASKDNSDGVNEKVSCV

Structure (SMILES) | Percentage inhibition of ligand binding, Adrenergic α2B ([1]; 0.03 μM compound) [%] | Percentage inhibition of ligand binding, Serotonin 5-HT2C [2] [%] | inhibition at 0.03 µM ([1]; 0.03 μM compound, read-out: Percentage inhibition of ligand binding, Adrenergic α2B) [%] | inhibition at 0.1 µM [2] [%] | inhibition at 0.1 µM [1, 5] [%] | inhibition at 0.1 µM [3] [%] | inhibition at 0.1 µM [4] [%]
Cc1ccc2c(c1)c1c(n2/C=C2\CCCc3ccccc32)CCN(C)C1 [i-3] |  |  |  | 100 | 57 | 100 | 83
Cc1ccc2c(c1)c1c(n2CC2(O)CCCc3ncccc32)CCN(C)C1 (single isomer, unassigned) [ii-112a] |  |  | 58 | 42 |  |  | 
Cc1ccc2c(c1)c1c(n2/C=C2/CCCc3ccccc32)CCN(C)C1 [i-2] |  |  |  | 100 | 81 | 99 | 102
Cc1ccc2c(c1)c1c(n2CC2(O)CCCc3ncccc32)CCN(C)C1 (single isomer, unassigned) [ii-112b] | 40 | 37 |  |  |  |  | 

More lines, main results first:

Percentage inhibition of ligand binding, Adrenergic α2B ([1]; 0.03 μM compound) [%] | Percentage inhibition of ligand binding, Serotonin 5-HT2C [2] [%] | inhibition at 0.03 µM ([1]; 0.03 μM compound, read-out: Percentage inhibition of ligand binding, Adrenergic α2B) [%] | Structure (SMILES) | inhibition at 0.1 µM [2] [%] | inhibition at 0.1 µM [1, 5] [%] | inhibition at 0.1 µM [3] [%] | inhibition at 0.1 µM [4] [%]
22 | 28 |  | Cc1ccc2c(c1)c1c(n2CC2(O)CCCc3cnccc32)CCN(C)C1 (single isomer, unassigned) [ii-74a] |  |  |  | 
23 |  |  | Cc1ccc2c(c1)c1c(n2CC2(O)CCCc3ccncc32)CCN(C)C1 (single isomer, unassigned) [ii-113a] | 37 |  |  | 
69 | 53 |  | Cc1ccc2c(c1)c1c(n2CC2(O)CCCc3cnccc32)CCN(C)C1 (single isomer, unassigned) [ii-74b] |  |  |  | 
